Test results from patent US9586963B2 (GENFIT, priority 2011, dated 2017).

Columns and labels:
[1] = biological target: T1, Rev-Erb alpha (Homo sapiens, UniProt P20393); assay: M2H (mammalian two-hybrid) cellular activation assay of Rev-Erb alpha; format: cell-based; conditions: M2H assay, HEK293 cells; for EC50: Gal4-Rev-Erb alpha / VP16-NCoR, luciferase reporter; for Emax: relative to DMSO, at the tested dose, read-out: TOP activation
T1 sequence (P20393 284-614 limits assumed): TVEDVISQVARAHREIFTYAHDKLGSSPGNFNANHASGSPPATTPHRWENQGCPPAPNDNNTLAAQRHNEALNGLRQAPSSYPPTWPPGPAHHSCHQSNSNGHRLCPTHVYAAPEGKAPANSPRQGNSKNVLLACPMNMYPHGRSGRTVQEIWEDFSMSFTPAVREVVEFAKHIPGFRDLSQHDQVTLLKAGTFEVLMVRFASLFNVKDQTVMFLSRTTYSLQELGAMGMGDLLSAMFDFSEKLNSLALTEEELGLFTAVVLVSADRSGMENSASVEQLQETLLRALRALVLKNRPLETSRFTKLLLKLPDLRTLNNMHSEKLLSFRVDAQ
Summary of the method: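 Six-point dose-response, 18 h, 37 °C, serum-free, in HEK293 cells carrying a Gal4-RE luciferase reporter with Gal4-Rev-Erb alpha or beta plus VP16-NCoR (corepressor interaction readout). EC50 and TOP activation (%) derived from luminescence across four experiments.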

Row | Compound | EC50 [1] [µM] | melting point [°C] | Emax [1] [%]
1 | Fc1ccc(-c2cc(F)ccc2Oc2ccc3nnc(Cl)n3n2)c(F)c1 [Cpd.4-188, 3-chloro-6-(5,2′,4′-trifluorobiphenyl-2-yloxy)-[1,2,4]triazolo[4,3-b]pyridazine] | 0.1 to 1 | 143.6 | –
2 | CC(C)Nc1ccc(-c2ccccc2)c(Oc2ccc3nnc(Cl)n3n2)c1 [Cpd.4-189, 3-chloro-6-(4-isopropylamino-biphenyl-2-yloxy)-[1,2,4]triazolo[4,3-b]pyridazine] | < 0.1 | 170 to 175 | –
3 | CCC(=O)Nc1ccc(Oc2ccc3nnc(Cl)n3n2)c(-c2ccccc2)c1 [Cpd.4-191, 3-chloro-6-(5-ethylcarbonylamino-biphenyl-2-yloxy)-[1,2,4]triazolo[4,3-b]pyridazine] | 1 to 6 | 163 to 165 | –
4 | COc1ncc(F)cc1-c1ccc(C(F)(F)F)cc1Oc1cc(C)c2nnc(Cl)n2n1 [Cpd.4-193, 3-chloro-8-methyl-6-((2-(2-methoxy-5-fluoropyridin-3-yl))-5-(trifluoromethyl)-phenoxy)-[1,2,4]triazolo[4,3-b]pyridazine] | 0.1 to 1 | 130 to 132 | –
5 | Clc1ccc(Oc2ccc3nnc(Cl)n3n2)c(-c2cncnc2)c1 [Cpd.4-194, 3-chloro-6-(4-chloro-2-(pyrimidin-5-yl)phenoxy)-[1,2,4]triazolo[4,3-b]pyridazine] | > 6 | 152 to 155 | > 130
6 | Cc1ccc2c(Oc3cc(C(F)(F)F)ccc3-c3ccccc3)nn3c(Cl)nnc3c2c1 [Cpd.5-9, 3-chloro-6-(4-trifluoromethyl-biphenyl-2-yloxy)-9-methyl-[1,2,4]triazolo[3,4-a]phthalazine] | 0.1 to 1 | 229 to 231 | –
7 | CCc1cc(Oc2cc(C(F)(F)F)ccc2-c2ccccc2)nn2c(Cl)nnc12 [Cpd.5-13, 3-chloro-8-ethyl-6-(4-trifluoromethyl-biphenyl-2-yloxy)-[1,2,4]triazolo[4,3-b]pyridazine] | 0.1 to 1 | 139.5 to 141.8 | –
8 | COc1ncccc1-c1ccc(C(F)(F)F)cc1Oc1cc(C)c2nnc(Cl)n2n1 [Cpd.5-23, 3-chloro-6-(2-(2-methoxypyridin-3-yl)-5-(trifluoromethyl)phenoxy)-8-methyl-[1,2,4]triazolo[4,3-b]pyridazine] | 1 to 6 | 156 to 158 | –
9 | COc1ncc(C(F)(F)F)cc1-c1ccc(C(F)(F)F)cc1Oc1nn2c(Cl)nnc2cc1C [Cpd.5-26, 3-chloro-7-methyl-6-((2-(2-methoxy-5-(trifluoromethyl)pyridin-3-yl))-5-(trifluoromethyl)phenoxy)-[1,2,4]triazolo[4,3-b]pyridazine] | 1 to 6 | 194 to 196 | –
10 | COc1ncc(C)cc1-c1ccc(C(F)(F)F)cc1Oc1cc(C)c2nnc(Cl)n2n1 [Cpd.5-27, 3-chloro-8-methyl-6-((2-(2-methoxy-5-methylpyridin-3-yl))-5-(trifluoromethyl)phenoxy)-[1,2,4]triazolo[4,3-b]pyridazine] | 1 to 6 | 117 to 119 | –
11 | Cc1cc2nnc(C(F)(F)F)n2nc1Oc1cc(C(F)(F)F)ccc1-c1cccnc1 [Cpd.5-33, 7-methyl-6-(2-(pyridin-3-yl)-5-(trifluoromethyl)phenoxy)-3-(trifluoromethyl)-[1,2,4]triazolo[4,3-b]pyridazine] | 1 to 6 | 173 to 175 | –
12 | Cc1ncc(-c2ccc(C(F)(F)F)cc2Oc2cc(C)c3nnc(Cl)n3n2)cn1 [Cpd.5-37, 3-chloro-8-methyl-6-((2-(2-methylpyrimidin-5-yl))-5-(trifluoromethyl)phenoxy)-[1,2,4]triazolo[4,3-b]pyridazine] | 1 to 6 | 200 to 202 | –
13 | COc1nccc(C)c1-c1ccc(C(F)(F)F)cc1Oc1cc(C)c2nnc(Cl)n2n1 [Cpd.5-39, 3-chloro-8-methyl-6-((2-(2-methoxy-4-methylpyridin-3-yl))-5-(trifluoromethyl)phenoxy)-[1,2,4]triazolo[4,3-b]pyridazine] | 1 to 6 | 139 to 141 | –

Now from value to molecule:

Row | EC50 [1] [µM] | melting point [°C] | Emax [1] [%] | Compound
14 | 0.1 to 1 | 154 to 159 | – | Clc1nnc2ccc(Oc3cc(NCCC4CCCCC4)ccc3-c3ccccc3)nn12 [Cpd.4-185, 3-chloro-6-(4-((cyclohexylethyl)amino)biphenyl-2-yloxy)-[1,2,4]triazolo[4,3-b]pyridazine]
15 | 1 to 6 | 190.5 | – | O=[N+]([O-])c1cccc(-c2cc(F)ccc2Oc2ccc3nnc(Cl)n3n2)c1 [Cpd.4-187, 3-chloro-6-(5-fluoro-3′-nitrobiphenyl-2-yloxy)-[1,2,4]triazolo[4,3-b]pyridazine]
16 | 1 to 6 | 52 to 57 | – | COC(=O)CCNc1ccc(Oc2ccc3nnc(Cl)n3n2)c(-c2ccccc2)c1 [Cpd.4-190, 3-chloro-6-(5-methyloxycarbonylethylamino-biphenyl-2-yloxy)-[1,2,4]triazolo[4,3-b]pyridazine]
17 | > 6 | 210 to 211 | > 130 | COc1ncc(-c2cc(Cl)ccc2Oc2ccc3nnc(Cl)n3n2)cn1 [Cpd.4-195, 3-chloro-6-(4-chloro-2-(2-methoxypyrimidin-5-yl)phenoxy)-[1,2,4]triazolo[4,3-b]pyridazine]
18 | 1 to 6 | 212 to 214 | – | Cc1ccc(-c2ccc(C(F)(F)F)cc2Oc2ccc3nnc(Cl)n3n2)cn1 [Cpd.4-196, 3-chloro-6-(2-(6-methylpyridin-3-yl)-5-(trifluoromethyl)phenoxy)-[1,2,4]triazolo[4,3-b]pyridazine]
19 | 0.1 to 1 | 213 to 215 | – | Fc1ccc2c(c1)c(Oc1cc(C(F)(F)F)ccc1-c1ccccc1)nn1c(Cl)nnc21 [Cpd.5-3, 3-chloro-6-(4-trifluoromethyl-biphenyl-2-yloxy)-8-fluoro-[1,2,4]triazolo[3,4-a]phthalazine]
20 | 0.1 to 1 | 190 to 192 | – | FC(F)(F)c1ccc(-c2ccccc2)c(Oc2nn3c(Cl)nnc3cc2-c2ccccc2)c1 [Cpd.5-5, 3-chloro-7-phenyl-6-(4-trifluoromethyl-biphenyl-2-yloxy)-[1,2,4]triazolo[4,3-b]pyridazine]
21 | < 0.1 | 169 to 172 | – | Cc1cc(Oc2cc(C(F)(F)F)ccc2-c2ccccc2)nn2c(Cl)nnc12 [Cpd.5-6, 3-chloro-8-methyl-6-(4-trifluoromethyl-biphenyl-2-yloxy)-[1,2,4]triazolo[4,3-b]pyridazine]
22 | 0.1 to 1 | 163 to 165 | – | Cc1cc2nnc(Cl)n2nc1Oc1cc(C(F)(F)F)ccc1-c1ccccc1 [Cpd.5-7, 3-chloro-7-methyl-6-(4-trifluoromethyl-biphenyl-2-yloxy)-[1,2,4]triazolo[4,3-b]pyridazine]
23 | 0.1 to 1 | 195 to 197 | – | Cc1ccc2c(c1)c(Oc1cc(C(F)(F)F)ccc1-c1ccccc1)nn1c(Cl)nnc21 [Cpd.5-10, 3-chloro-6-(4-trifluoromethyl-biphenyl-2-yloxy)-8-methyl-[1,2,4]triazolo[3,4-a]phthalazine]
24 | 0.1 to 1 | 55 to 58 | – | CC(C)c1cc2nnc(Cl)n2nc1Oc1cc(C(F)(F)F)ccc1-c1ccccc1 [Cpd.5-11, 3-chloro-7-isopropyl-6-(4-trifluoromethyl-biphenyl-2-yloxy)-[1,2,4]triazolo[4,3-b]pyridazine]
25 | < 0.1 | 175 to 177 | – | FC(F)(F)c1ccc(-c2cccnc2)c(Oc2nn3c(Cl)nnc3c3ccccc23)c1 [Cpd.5-15, 3-chloro-6-(2-(pyridin-3-yl)-5-(trifluoromethyl)phenoxy)-[1,2,4]triazolo[3,4-a]phthalazine]
26 | 1 to 6 | 176 to 178 | – | COc1ncccc1-c1ccc(C(F)(F)F)cc1Oc1nn2c(Cl)nnc2cc1C [Cpd.5-24, 3-chloro-7-methyl-6-((2-(2-methoxypyridin-3-yl))-5-(trifluoromethyl)phenoxy)-[1,2,4]triazolo[4,3-b]pyridazine]
27 | > 6 | 151 to 153 | > 130 | Cc1cc(Oc2cc(C(F)(F)F)ccc2-c2cccnc2)nn2c(C(F)(F)F)nnc12 [Cpd.5-32, 8-methyl-6-(2-(pyridin-3-yl)-5-(trifluoromethyl)phenoxy)-3-(trifluoromethyl)-[1,2,4]triazolo[4,3-b]pyridazine]
28 | 1 to 6 | 161 to 162 | – | COc1nccc(C)c1-c1ccc(C(F)(F)F)cc1Oc1nn2c(Cl)nnc2cc1C [Cpd.5-40, 3-chloro-7-methyl-6-((2-(2-methoxy-4-methylpyridin-3-yl))-5-(trifluoromethyl)phenoxy)-[1,2,4]triazolo[4,3-b]pyridazine]
29 | 0.1 to 1 | 163 to 166 | – | COc1ncc(F)cc1-c1ccc(C(F)(F)F)cc1Oc1nn2c(Cl)nnc2cc1C [Cpd.5-41, 3-chloro-7-methyl-6-((2-(2-methoxy-5-fluoropyridin-3-yl))-5-(trifluoromethyl)phenoxy)-[1,2,4]triazolo[4,3-b]pyridazine]
30 | 1 to 6 | 149 to 150 | – | CCc1nnc2cc(C)c(Oc3cc(C(F)(F)F)ccc3-c3cncnc3)nn12 [Cpd.5-43, 3-ethyl-7-methyl-6-(2-(pyrimidin-5-yl)-5-(trifluoromethyl)phenoxy)-[1,2,4]triazolo[4,3-b]pyridazine]
